# Test: Human HepG2 cell viability assay in 384 well format
# Type: toxicity, cell-based
# Design: dose 125 nL, time 70.5 hour; concentration not given beside the values
# Details: HepG2 cells, read-out: Inhibition
row,SMILES,cytotoxicity at 70.5 h [%]
1,CCCC(C#N)NC(=O)c1cc(Br)c2c(c1)OCCO2 (stereo unspecified),-11.4
2,O=C(c1cscn1)N1CCC2(CN(Cc3ccsc3)C2)C1,31.3
3,CC[C@H](C)Nc1nccc(-c2cnc3sccn3c2=O)n1,-4.72
4,CC(NC(=O)COCC(F)(F)F)c1nnc2n1CCCCC2 (stereo unspecified),-16.3
5,Cn1cc(C(O)CNC(=O)c2sccc2OC(F)F)cn1 (stereo unspecified),-4.33
6,Cc1cccc(CN2CCc3ncnc(C)c3CC2)n1,-2.78
7,Fc1cccc(CN2CCOCC3(CCN(C4CCOCC4)C3)C2)c1 (stereo unspecified),-7.34
8,O=C(N[C@@H]1CC[C@@H](N2CCCC2)[C@@H]1O)c1cc2cccc(F)c2[nH]1,-9.84
9,Cc1csc(CN2CCC3(CC2)COC(COCC2CC2)C3)n1 (stereo unspecified),-0.893
10,COc1ccc(C(=O)N2CCOC3(CNCCOC3)C2)c(OC)n1 (stereo unspecified),28
11,O=C(O)c1ccccc1-n1cnc(CN2CCCc3ccccc32)c1,-2.75
12,Fc1ccc(NC2CCCN(Cc3ccncc3)C2)cc1 (stereo unspecified),26.1
13,COc1ccccc1C(=O)N1CC2(COC(C)(C)OC2)C1,-0.0905
14,COCC1CN(c2ccc(C#N)c(Cl)c2)CCO1 (stereo unspecified),21.2
15,Cc1cncc(C(=O)N2CCCC(C(=O)CCc3ccccc3)C2)c1 (stereo unspecified),-5.02
16,CC(=O)N[C@@H]1CN(c2nc(C(N)=O)cs2)C[C@H]1c1ccc(C)o1,-15.3
17,Cc1ccc(CC(=O)N2CSCC2C(=O)N(C)Cc2ccco2)o1 (stereo unspecified),-12.2
18,OC(CN(Cc1ccccc1)Cc1ccncc1)c1cccs1 (stereo unspecified),21.6
19,Cc1nnc(CN(C)C2CCN(Cc3nc4ccccc4n3C)C2)o1 (stereo unspecified),-1.55

row,SMILES,cytotoxicity at 70.5 h [%]
1,CC(C)OCCCNC(=O)NCc1cccc(-n2ccnc2)c1,-6.74
2,Cc1cc(Br)ccc1C(=O)Nc1c(C(N)=O)n[nH]c1C,-9.24
3,CC1=N[C@@]2(CC[C@@H]3CN(S(=O)(=O)C4CC4)C[C@@H]32)C(=O)N1CC(C)C,10.8
4,O=C(NS(=O)(=O)c1cccc(C(F)(F)F)c1)c1cscn1,-10.3
5,Cn1cc(-c2ccnc(NCC3CCN(Cc4ccccc4)C3)n2)cn1 (stereo unspecified),11.9
6,Cc1ccc(CN(CCN(C)C)C(=O)Nc2cnn(C)c2)s1,-7.54
7,COc1cc(N2C[C@H](OCc3cccnc3)[C@H]3OCCC[C@H]32)ncn1,3.36
8,Cn1ccnc1CN1CCN(CCOc2cccc(C#N)c2)CC1,-0.0786
9,Cc1cc(C)c(CNc2cnn(CC(O)CN(C)C)c2)c(C)c1 (stereo unspecified),-11.8
10,CCc1nc(CC)n(CC(=O)N(C)CC(F)(F)F)n1,-4.55
11,O=C(NCc1nccn1CCc1ccccc1)NCC1(O)CCC1,1.18
12,CNC(=O)CCNC(=O)Nc1cccc(Cl)c1SC(F)F,0.534
13,NS(=O)(=O)c1cccnc1NCc1ccco1,-4.56
14,O=C1CC[C@]2(CC[C@@H](NC(=O)NCc3ccccc3)CC2)N1,15.6
15,CN1CCN2C(=O)N(C3CCOCC3)C[C@H]2C1,-2.12
16,CCN1CCN(C2CCN(C(C(N)=O)c3ccc(F)cc3)CC2)C1=O (stereo unspecified),5.11
17,O=C(c1cnccn1)N1CCCC(C2=Nc3ccccc3S(=O)(=O)N2)C1 (stereo unspecified),-6.36
18,Cc1cccc(N2N=C(C(=O)NC(C)Cc3ccco3)CCC2=O)c1 (stereo unspecified),-13.7
19,Cc1cc(C)nc(C2CCN(C(=O)CCn3nnc4ccccc43)C2)n1 (stereo unspecified),-6.12

row,SMILES,cytotoxicity at 70.5 h [%]
1,Cc1cc(=O)n2nc(Oc3ccc(Cl)c(C)c3)sc2n1,-6.83
2,COCCc1noc(CN2CCCC2Cn2nc(C)cc2C)n1 (stereo unspecified),1.57
3,c1cnn(Cc2ccc(CN3CCC4(CCNCC4)C3)cc2)c1,2.52
4,COCC(=O)NC(CC(C)C)c1nc2cccnc2n1C (stereo unspecified),20.7
5,Cc1nc(N2Cc3cnn(Cc4ccc(F)cc4)c3C2)no1,13.6
6,CC(C)(C)NC(=O)c1nn(C2CCS(=O)(=O)C2)c2c1CCCC2 (stereo unspecified),-18.7
7,CS(=O)(=O)NC[C@H]1Cn2c(-c3ccc(Cl)cc3)cnc2CO1,-7.36
8,CNc1cc(C)nc(N2CCC3(CC2)[C@H](O)C[C@@H]3O)n1,-6.92
9,Cn1cc(Br)c(=O)c(NS(=O)(=O)c2ccc(F)cc2)c1,16.4
10,FC(F)c1nnc2ccc(N3CCC4(CCOC4)C3)nn12 (stereo unspecified),7.83
11,c1csc(CN2CCCC3(COCCN(c4cnccn4)C3)C2)c1 (stereo unspecified),-6.31
12,Cc1[nH]nc2ncc(C(=O)N3CCCC3c3noc(C(C)C)n3)cc12 (stereo unspecified),-19.5
13,NC(=O)C1CCN(C(=O)NC(Cc2ccccc2)C(F)(F)F)CC1 (stereo unspecified),3.75
14,Cc1ccc(CN2C(=O)CC[C@]23CC[C@@H](NC2CCOC2)CC3)cc1 (stereo partly specified),-1.41
15,CC(C)C1CCCN1C(=O)c1ccc(-n2ncc(C#N)c2N)cc1 (stereo unspecified),-5.76
16,COCCN1C[C@@H]2[C@@H](OC)CCN(Cc3ccsc3)[C@@H]2C1,-2.68
17,COC(=O)C(CNC(=O)Nc1nncs1)Cc1ccc(F)cc1 (stereo unspecified),-4.56
18,Cc1c(C(=O)N(CCN(C)C)Cc2ccccn2)oc2ccccc12,-5.85

# Reference: ChEMBL document CHEMBL3507680, “University of Dundee, Gates Library screen for HepG2 cell viability”
